The subject of series [1] is SK-BR-3, SK-OV-3, JIMT-1 and MCF7 cells. Put plainly: Cell viability, all cells of Fig. 4d. The note with it: SK-BR-3, SK-OV-3, JIMT-1, MCF7; CellTiter Glo; n = 3 independent experiments. Type of series: cell-based. How it is done:
(§1) Cells were seeded in a 96-well white opaque plate at a density of 5 × 10^3/well (CHO, ATCC, CCL-61) or 1 × 10^4/well (MCF7 (ATCC, HTB-22), SK-BR-3 (ATCC, HTB-30), SK-OV-3 (ATCC, HTB-77) or JIMT-1(Beyotime, C6453)). Cells were allowed to attach for 24 h at 37 °C and 5% CO2 in humidified atmosphere. Cells were then treated with serial dilutions of Tra-CAST, Tra-CAST-MMAE and SBA-MMAE or Tra-CASTi, Tra-CASTi-MMAE and DBCO-MMAE for 96 h (BT474, MCF7, SK-BR-3). Cell viability was determined using CellTiter Glo reagents (G7571) and was normalized to the control cells. Data was analyzed by Graphpad software, and the half-maximal effective concentration (EC50) value was calculated by fitting with the log(inhibitor) vs. response module.
10! […]
(§2) Our selected nanobody binds to human serum albumin (HSA)7, The functional impact of inserting CAST to nanobody was evaluated by measuring the affinity to human serum albumin using Biolayer Interferometry at room temperature. […]
Cells were seeded in a 96-well white opaque plate at a density of 5 × 10^3/well (CHO) or 1 × 10^4/well (MCF7, SK-BR-3, SK-OV-3 or JIMT-1). […] Cell viability was determined using CellTiter Glo reagents (G7571) and was normalized to the control cells. Data was analyzed by Graphpad software, and the half-maximal effective concentration (EC50) value was calculated by fitting with the log(inhibitor) vs. response module. […]

The nature of another series: PBS. The note with it: 95 °C, up to 1 hour.
A short description of a further series: 10 mM cysteine in PBS. The note with it: 95 °C, up to 1 hour.
A short description of the next series: mouse plasma. The note with it: Male BALB/c mice, 37 °C, up to 144 h.
Another series is described as follows: fresh serum. The note with it: Male BALB/c mice, 37 °C, up to 20 hours (table); 21 h (methods).
Series [2] in a line: 20 mM glutathione, PBS (pH 7.4). The note with it: 37 °C, up to 22 h.
Another series relates to CHO, MCF7, SK-BR-3 cells. In words: Cell viability, all cell lines of Supplementary Fig. 38. Type of series: cell-based. The conditions noted are these: 96 h, CellTiter Glo. How it is done:
as §1
Deconvolutedmass (Da) Deconvolutedmass (Da)
Supplementary Figure 37. ESI ion series/deconvolution MS spectra: reactions between […]
trastuzumab-CAST and 1C and SBA-MMAE. a. […]
as §2
Cells were seeded in a 96-well white opaque plate at a density of 5 × 10^3/well (CHO) or 1 × 10^4/well (MCF7, SK-BR-3, SK-OV-3 or JIMT-1). […] Cell viability was determined using CellTiter Glo reagents (G7571) and was normalized to the control cells. Data was analyzed by […]
Background: Cellular ATP, detected with luciferase, serves as a proxy for viable cell number.

Entries after “also recorded” stand apart in the source; their conditions may differ.

These results are taken from publication PMC10698186 (Nature Communications, 2023).

With “DBCO-PEG3-Glu-Val-Cit-PAB-MMAE [DBCO-MMAE]”, the “toxicity towards all cells” value in series [1] is given as “minimal toxicity”.

With DLAAEIAKHCG, the fragment found entry is “Maleimide hydrolysis byproduct, 1h” in the series “PBS” and “Maleimide hydrolysis byproduct, 1h; also recorded: SM:DLAAEIAKHCG, 1h” in the series “10 mM cysteine in PBS”.

Turning to Phenyl-PEG2-FFKKDDHAA, in the series “mouse plasma”, the cleaved bond result is listed as “F-K, 18 h; also recorded: F-F, 48 h” and the fragment found entry is given as “Phenyl-PEG2-FFKK, 48 h”.

Consider Phenyl-PEG2-IAPDDHAA, for which the not cleaved result in “mouse plasma” is “remained intact following incubation in plasma for 144 h”.

Consider Phenyl-PEG2-SPG-FFKKDDHAA, for which, in “fresh serum”, the cleaved bond result was “P-G, 3 hours; also recorded: F-K, 3 hours; also recorded: G-F, 3 hours”.

With Phenyl-PEG2-SPG-HAQDDHAA, the cleaved bond result in “fresh serum” is reported as “P-G, 3 hours”.

For the substance Phenyl-PEG2-SPG-IAPDDHAA, in the series “fresh serum”, the cleaved bond result is “G-I, 3 hours; also recorded: D-D, 20 hours; also recorded: P-G, 20 hours”.

As to Phenyl-PEG2-SPG-IAQDDHAA, the cleaved bond result in “fresh serum” is “G-I, 3 hours”.

Regarding Phenyl-PEG2-SPG-IKAQDDHAA, the cleaved bond entry in “fresh serum” is listed as “I-K, 3 hours; also recorded: G-I, 3 hours; also recorded: A-Q, 3 hours; also recorded: P-G, 3 hours”.

With Phenyl-PEG2-SPG-INDPDDHAA, in “fresh serum”, the cleaved bond result was “P-G, 3 hours; also recorded: G-I, 20 hours”.

On to Phenyl-PEG2-SPG-KAQDDHAA, for which, in “fresh serum”, the cleaved bond result is on record as “P-G, 3 hours; also recorded: G-K, 3 hours”.

Phenyl-PEG2-SPG-LKQDDHAA: the cleaved bond result in the series “fresh serum” was “G-L, 3 hours”.

Turning to Phenyl-PEG2-SPG-MEQDDHAA, the cleaved bond entry in the series “fresh serum” is “G-M, 3 hours; also recorded: P-G, 3 hours”.

On to Phenyl-PEG2-SPG-NAPDDHAA, for which the cleaved bond result in the series “fresh serum” is recorded as “G-N, 20 hours; also recorded: P-G, 20 hours”.

Regarding Phenyl-PEG2-SPG-NAQDDHAA, the cleaved bond entry in “fresh serum” is listed as “G-N, 3 hours; also recorded: P-G, 3 hours”.

As for Phenyl-PEG2-SPG-NEQDDHAA, in “fresh serum”, the cleaved bond result is reported as “P-G, 3 hours; also recorded: G-N, 20 hours”.

Regarding Phenyl-PEG2-SPG-NKKDDHAA, the cleaved bond result in “fresh serum” is reported as “G-N, 3 hours”.

Take Phenyl-PEG2-SPG-SHAQDDHAA: the cleaved bond entry in “fresh serum” was “G-S, 3 hours; also recorded: P-G, 3 hours”.

As to Phenyl-PEG2-SPG-SKAQDDHAA, the cleaved bond entry in the series “fresh serum” was “G-S, 3 hours; also recorded: P-G, 3 hours”.

In the case of “WCGIAPDDHAA [maleimide modified WCGIAPDDHAA]”, the fragment found result in series [2] is on record as “released free peptide WCGIAPDDHAA, 22 h; also recorded: maleimide hydrolysis byproducts, 22 h”.

Turning to WCGIAPDDHAA [maleimide-WCGIAPDDHAA], the fragment found entry in series [2] is on record as “WCGIAPDDHAA, 22 h”.

As for “styrylboronic acid-Val-Cit-PAB-monomethyl auristatin E [SBA-MMAE]”, the “toxicity in all cell lines at the tested concentrations” value with CHO, MCF7, SK-BR-3 cells was “displayed toxicity and could not effectively distinguish HER2-negative MCF7 cells or HER2-positive SK-BR-3 cells”.
